Results on 18 compounds are retold here after PubChem BioAssay (NCI).

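Interpolation was linear, between the two tested concentrations surrounding the appropriate level; five concentrations were tested over 48 hours in 96-well plates. TGI: total growth inhibition.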 Some results are limits rather than exact numbers.

Test systems include SNB-78 CNS; M19-MEL melanoma; HOP-18 NSCLC; LXFL 529 NSCLC; XF 498 CNS; RXF-631 renal.
Holding throughout (experiment): DTP human tumour cell line panel, 48 h

With `CCOC(=O)CC1COc2ccc3c(c21)OCO3` (stereo unspecified), the TGI in the assay with SNB-78 CNS, in the assay with M19-MEL melanoma, in the assay on HOP-18 NSCLC, in the assay on LXFL 529 NSCLC and in the assay on XF 498 CNS was more than 100 µM throughout.

Regarding `CCOC(=O)C1SC(=Nc2ccc(OC)c(OC)c2)N=C1C` (stereo unspecified), the TGI in the assay on SNB-78 CNS is more than 100 µM; with RXF-631 renal, more than 100 µM; in the assay with HOP-18 NSCLC, more than 100 µM; with LXFL 529 NSCLC, more than 100 µM; with XF 498 CNS, 68.8 µM.

Consider `CC(C)C(=O)N1Cc2cc(Cl)cc(Cl)c2OC(=O)c2ccccc21`, for which the TGI is more than 100 µM with SNB-78 CNS, more than 100 µM in the assay on RXF-631 renal, 93.1 µM in the assay with HOP-18 NSCLC and 34.3 µM with LXFL 529 NSCLC.

In the case of `O=C(/C=C\c1cccc2ccccc12)c1ccc(F)cc1`, the TGI in the assay on SNB-78 CNS came out at 38.5 µM; in the assay on M19-MEL melanoma, 39.4 µM; in the assay with HOP-18 NSCLC, 28.2 µM; in the assay on LXFL 529 NSCLC it was 30.8 µM.

Consider `CC(=O)OCC1OC(n2ccc(=O)[nH]c2=O)C(OC(C)=O)C(OC(C)=O)C1OC(C)=O` (stereo unspecified), for which the TGI in the assay with M19-MEL melanoma, in the assay with HOP-18 NSCLC, in the assay with LXFL 529 NSCLC and with XF 498 CNS was more than 100 µM throughout.

`COc1ccc(C2=NN(c3ccccc3)C[N+](c3ccc(C)cc3)=N2)cc1`: the TGI in the assay with SNB-78 CNS is more than 100 µM; in the assay on M19-MEL melanoma, more than 100 µM; in the assay with LXFL 529 NSCLC, 38.5 µM; with XF 498 CNS, 52.9 µM.

Turning to `O=C(Nc1ccc(Cl)cc1C(F)(F)F)C(=O)C1CCCS1(=O)=O` (stereo unspecified), the TGI in the assay on SNB-78 CNS, in the assay on M19-MEL melanoma, in the assay with HOP-18 NSCLC, with LXFL 529 NSCLC and in the assay with XF 498 CNS was more than 100 µM each time.

On to `CCC(C)C(N)C(=O)NC(CC(N)=O)C(=O)NC(CC(C)C)C(=O)NC(CCCCN)C(=O)NC(C)C(=O)NC(CC(C)C)C(=O)NC(C)C(=O)NC(C)C(=O)NC(CC(C)C)C(=O)NC(C)C(=O)NC(CCCCN)C(=O)NC(CCCCN)C(=O)NC(C(=O)NC(CC(C)C)C(N)=O)C(C)CC` (stereo unspecified), for which the TGI with SNB-78 CNS is 29.2 µM; with RXF-631 renal, 19.5 µM; with M19-MEL melanoma, 25.9 µM; with HOP-18 NSCLC, 13.5 µM; in the assay with LXFL 529 NSCLC it was 28.7 µM.

Consider `O=C(O)/C(Cl)=C(\Cl)C(=O)c1ccccc1`, for which the TGI in the assay with SNB-78 CNS, with M19-MEL melanoma, with LXFL 529 NSCLC and in the assay on XF 498 CNS was more than 100 µM each time.

Turning to `CC(=O)OC(CC1(C)C(C)CCC23COC(=O)C2=CCCC31)c1ccoc1` (stereo unspecified), the TGI in the assay with SNB-78 CNS was 70.4 µM; in the assay on M19-MEL melanoma, more than 100 µM; in the assay with LXFL 529 NSCLC, 38.9 µM; in the assay on XF 498 CNS it was 44.6 µM.

With `CCOC(=O)C(=O)C=P(c1ccccc1)(c1ccccc1)c1ccccc1`, the TGI with SNB-78 CNS, in the assay on RXF-631 renal, in the assay on M19-MEL melanoma, in the assay on HOP-18 NSCLC and with LXFL 529 NSCLC was more than 100 µM throughout.

In the case of `CCOC(=O)Cn1c2ccccc2c(=O)c2cc(C)c(C)c(C#N)c21`, the TGI in the assay on SNB-78 CNS is more than 100 µM; with RXF-631 renal, more than 100 µM; in the assay with M19-MEL melanoma, more than 100 µM; in the assay with HOP-18 NSCLC, more than 100 µM; in the assay on LXFL 529 NSCLC it was more than 100 µM; with XF 498 CNS, 97.2 µM.

Regarding `CC(CCC[C@H](C)CO)[C@H]1[C@@H](O)C(O)C2[C@@H]3C[C@@H](O)C4(O)C[C@@H](O)CC[C@]4(C)C3CC[C@@]21C` (stereo partly specified), the TGI in the assay on SNB-78 CNS, with M19-MEL melanoma, in the assay with HOP-18 NSCLC, in the assay on LXFL 529 NSCLC and in the assay with XF 498 CNS was more than 100 µM throughout.

In the case of `NCCSc1cc(O)c2c(c1N)C(=O)c1ccccc1C2=O`, the TGI is more than 100 µM in the assay on SNB-78 CNS; 97.1 µM in the assay with RXF-631 renal; 73.6 µM in the assay on M19-MEL melanoma; more than 100 µM with LXFL 529 NSCLC; 49.5 µM in the assay with XF 498 CNS.

Consider `COc1c(C)cc2c(C(C)C)c(O)c(O)c(C=O)c2c1O`, for which the TGI with SNB-78 CNS was more than 100 µM; in the assay with M19-MEL melanoma, 81.8 µM; in the assay with HOP-18 NSCLC, 71.7 µM; in the assay with LXFL 529 NSCLC it was more than 100 µM; in the assay on XF 498 CNS it was more than 100 µM.

In the case of `O=C(Cc1ccccc1F)NC1=C(Cl)C(=O)c2ccccc2C1=O`, the TGI stood at 12.4 µM with M19-MEL melanoma, 3.32 µM with HOP-18 NSCLC, 5.56 µM with LXFL 529 NSCLC and 1.68 µM in the assay with XF 498 CNS.

As for `N#CCc1c(-c2ccccc2)n(S(=O)(=O)c2ccccc2)c2ccccc12`, the TGI with M19-MEL melanoma, in the assay with LXFL 529 NSCLC and in the assay on XF 498 CNS was more than 100 µM in each case.

Take `COC(=O)c1cc(C(=O)OC)c(CC(=O)C(=O)NC2C3CC4CC(C3)CC2C4)nc1CC(=O)C(=O)NC1C2CC3CC(C2)CC1C3` (stereo unspecified): the TGI in the assay with SNB-78 CNS, with M19-MEL melanoma, with HOP-18 NSCLC and in the assay on LXFL 529 NSCLC was more than 100 µM in each case.
